# Literature values, collected in US8501786B2, “Hydroxymethyl pyrrolidines as beta 3 adrenergic receptor agonists” (Merck Sharp & Dohme Corp., priority 2009, dated 2013).
# Molecular target: T1, β3AR (Rattus norvegicus, UniProt P26255)
# T1 construct: Following intravenous administration to rats; host or cells: living rats (bladder, in vivo)
# Conditions: rats, intravenous administration, cited from earlier work
# T1 sequence (P26255 whole entry): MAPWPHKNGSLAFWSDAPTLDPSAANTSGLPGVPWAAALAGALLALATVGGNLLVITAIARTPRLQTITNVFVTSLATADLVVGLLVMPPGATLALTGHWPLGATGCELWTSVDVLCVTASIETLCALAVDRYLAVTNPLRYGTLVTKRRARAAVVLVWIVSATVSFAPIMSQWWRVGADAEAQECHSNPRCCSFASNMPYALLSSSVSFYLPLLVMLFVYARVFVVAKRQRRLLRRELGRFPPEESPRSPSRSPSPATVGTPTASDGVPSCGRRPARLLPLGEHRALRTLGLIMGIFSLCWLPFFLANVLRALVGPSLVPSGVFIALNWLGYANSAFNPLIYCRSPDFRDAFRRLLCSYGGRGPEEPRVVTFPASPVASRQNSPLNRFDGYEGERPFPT
compound,measurement,setting,value
C[C@H](Cc1ccc2c(c1)OC(C(=O)[O-])(C(=O)[O-])O2)NC[C@H](O)c1cccc(Cl)c1.[Na+].[Na+] [CL316243],bladder capacity,cystometric studies,increases bladder capacity
same,bladder pressure,,reduces bladder pressure
